The text below walks through data of ChEMBL document CHEMBL1201862, “PubChem BioAssay data set” (2004).

Assay in all cases: NCI tumour cell line growth inhibition, 48 h
The test system of test [1] is DLD-1.
Test [2] has as its system CAKI-1.
In test [3] the test system is U-251.
The test system of test [4] is SF-539.
The test system of test [5] is LOX IMVI.
For test [6], the system named is SNB-75.
Test [7] concerns RPMI-8226.
Test [8] relates to SK-MEL-2.
Test [9] deals with MDA-N.
The test system of test [10] is SN12C.
The test system of test [11] is OVCAR-8.
For test [12], the system named is HOP-92.
In test [13] the test system is A549.
Test [14] relates to TK-10.
For test [15], the system named is MCF7.
The subject of test [16] is OVCAR-4.
The subject of test [17] is PC-3.
Test [18] relates to XF498.
The subject of test [19] is SK-OV-3.
In test [20] the test system is M14.

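Where inhibition never reached the appropriate level, the endpoint shown equals the highest concentration tested. Otherwise, values were interpolated linearly from a five-concentration, 48-hour dose response in 96-well plates. GI50 is the concentration that inhibits growth by half.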 Calls of active or inactive are those of the source. Cut-off read from the data, not from the text of the source: active = GI50 up to about 1.1 µM and inactive = higher.

`CC(C(=O)O)/C(=C\c1ccc2c(c1)OCO2)C(=O)O` (stereo not drawn): the GI50 in test [1], in test [2], in test [3], in test [4], in test [5] and in test [6] was > 100 µM (inactive) each time. Also, the GI50 in test [7], in [8], in [9], in test [10], in test [11] and in test [12] was > 100 µM (inactive) each time. The GI50 in test [13], in [14], in test [15], in test [16], in [17] and in test [18] was > 100 µM (inactive) each time. Also, the GI50 in test [19] and in test [20] was > 100 µM (inactive) each time.

Consider `CCCC(=O)c1ccc(=O)n(C)c1`, for which the GI50 in test [1], in test [2], in test [3], in test [4], in test [5] and in test [6] was > 100 µM (inactive) each time. The GI50 in [7], in test [8], in test [10], in test [11], in [12] and in test [13] was > 100 µM (inactive) throughout. Further, the GI50 in test [14], in test [16], in test [18], in test [19] and in [20] was > 100 µM (inactive) each time.

For the compound `O=c1oc2ccccc2c(O)c1C(C/C(CCN1CCCC1)=N/O)c1ccccc1` (stereo not drawn), the GI50 in [1] is > 100 µM (inactive); in test [2] it was > 100 µM (inactive); in test [3], > 100 µM (inactive); in test [4], > 100 µM (inactive); in test [5], > 100 µM (inactive); in test [6], > 91.2 µM (inactive). Further, the GI50 in test [7] is > 94.8 µM (inactive); in [8], > 100 µM (inactive); in test [9], > 100 µM (inactive); in test [10] it was > 100 µM (inactive); in [11], > 100 µM (inactive); in test [12] it was 56.4 µM (inactive). For the same compound, the GI50 in test [13], in test [14], in [15], in [16], in test [17] and in test [18] was > 100 µM (inactive) each time. For the same compound, the GI50 in test [19] and in test [20] was > 100 µM (inactive) each time.

As to `CCCS(=O)(=O)/C(=C(\c1ccc(Br)cc1)S(=O)(=O)CCC)c1ccc(Br)cc1`, the GI50 in [1], in test [2], in [3], in test [4], in test [5] and in [6] was > 10 µM (inactive) in each case. The GI50 in test [7], in [8], in test [10], in test [11], in test [12] and in [13] was > 10 µM (inactive) each time. The GI50 in test [14], in test [16], in test [18], in test [19] and in [20] was > 10 µM (inactive) throughout.

Consider `CCN(CC)CCNc1ccc2ncn3c4ccc(OC)cc4c(=O)c1c23`, for which the GI50 is 1.08 µM (active) in [1]; 5.65 µM (inactive) in test [2]; 1.38 µM (inactive) in [3]; 4.24 µM (inactive) in test [4]; 1.51 µM (inactive) in test [5]; 7.08 µM (inactive) in [6]. The GI50 in test [7] is 1.21 µM (inactive); in [8] it was 9.25 µM (inactive); in [9], 5.18 µM (inactive); in test [10], 2.14 µM (inactive); in [11] it was 0.836 µM (active); in test [12], 4.75 µM (inactive). The GI50 in test [13] was 2.91 µM (inactive); in test [14], 10.4 µM (inactive); in [15], 57 µM (inactive); in [16], 1.74 µM (inactive); in test [17], 3.83 µM (inactive); in test [18], 5.02 µM (inactive). The GI50 in test [19] was 7.71 µM (inactive); in test [20], 5.21 µM (inactive).

`COc1cc(C2c3cc4c(cc3[C@@H](Nc3ccc5c(c3)OCCO5)C3COC(=O)[C@H]23)OCO4)cc(OC)c1O` (stereo partly drawn): the GI50 in test [1] was 0.692 µM (active); in [2], 0.113 µM (active); in test [3], 0.516 µM (active); in [4] it was 0.435 µM (active); in test [5], 0.587 µM (active); in test [6], 0.581 µM (active). Further, the GI50 in test [7] was 0.532 µM (active); in test [8], 2.19 µM (inactive); in [10], 0.627 µM (active); in test [11], 0.693 µM (active); in test [12], 0.478 µM (active); in [13] it was 0.104 µM (active). For the same compound, the GI50 in [14] was 1.52 µM (inactive); in test [15], 0.802 µM (active); in test [16], 5.97 µM (inactive); in [17], 0.918 µM (active); in test [18], 0.525 µM (active); in [19], 1.58 µM (inactive). Also, in test [20], the GI50 is 0.327 µM (active).
